Legend:
Assay type in all cases: in vivo
[1] = test system: Chilo suppressalis; test: Activity against Chilo suppressalis (striped rice stemborer), artificial diet in 24-well plates; details: 144 h, application rate 200 ppm, L2 larvae, 6 days after infestation
Experimental: 24-well microtiter plates with artificial diet were treated with aqueous test solutions prepared from 10′000 ppm DMSO stock solutions by pipetting. After drying, the plates were infested with L2 larvae (6-8 per well). The samples were assessed for mortality, anti-feeding effect, and growth inhibition in comparison to untreated samples 6 days after infestation. Control of Chilo suppressalis by a test sample is given when at least one of the categories mortality, anti-feedant effect, and growth inhibition is higher than the untreated sample.

[2] = test system: Plutella xylostella; test: Activity against Plutella xylostella (diamond back moth), artificial diet; details: 192 h, application rate 200 ppm, eggs, 8 days after infestation, read-out: effect in at least one of the two categories (mortality or growth inhibition)
Experimental: 24-well microtiter plates with artificial diet were treated with aqueous test solutions prepared from 10′000 ppm DMSO stock solutions by pipetting. After drying, Plutella eggs were pipetted through a plastic stencil onto a gel blotting paper and the plate was closed with it. The samples were assessed for mortality and growth inhibition in comparison to untreated samples 8 days after infestation.
(§1) Activity of compound P5 according to the preparatory examples and of compound P.118 from WO 21/083936 against Plutella xylostella ([…]) and Diabrotica balteata (Example B2) is summarized in Table B9.

[3] = test system: Spodoptera littoralis; test: Activity against Spodoptera littoralis (Egyptian cotton leaf worm), sprayed cotton leaf discs; details: foliar, 72 h, application rate 200 ppm, L1 larvae, 3 days after infestation
Experimental: Cotton leaf discs were placed onto agar in 24-well microtiter plates and sprayed with aqueous test solutions prepared from 10′000 ppm DMSO stock solutions. After drying the leaf discs were infested with five L1 larvae. The samples were assessed for mortality, anti-feeding effect, and growth inhibition in comparison to untreated samples 3 days after infestation. Control of Spodoptera littoralis by a test sample is given when at least one of the categories mortality, anti-feedant effect, and growth inhibition is higher than the untreated sample.

[4] = test system: Myzus persicae; test: Activity against Myzus persicae (green peach aphid), feeding/contact activity; details: 144 h, application rate 200 ppm, mixed ages, 6 days after infestation
Experimental: Sunflower leaf discs were placed onto agar in a 24-well microtiter plate and sprayed with aqueous test solutions prepared from 10′000 ppm DMSO stock solutions. After drying, the leaf discs were infested with an aphid population of mixed ages. The samples were assessed for mortality 6 days after infestation.

[5] = test system: Diabrotica balteata; test: Activity against Diabrotica balteata (corn root worm), sprayed maize sprouts; details: 96 h, application rate 200 ppm, L2 larvae, 4 days after infestation, read-out: effect in at least one of the two categories (mortality or growth inhibition)
Experimental: Maize sprouts placed onto an agar layer in 24-well microtiter plates were treated with aqueous test solutions prepared from 10′000 ppm DMSO stock solutions by spraying. After drying, the plates were infested with L2 larvae (6 to 10 per well). The samples were assessed for mortality and growth inhibition in comparison to untreated samples 4 days after infestation.
as §1

[6] = test system: Myzus persicae; test: Activity against Myzus persicae (green peach aphid), intrinsic activity; details: 120 h, test rate 12 ppm, 5 days after infestation
Experimental: Test compounds prepared from 10′000 ppm DMSO stock solutions were applied by pipette into 24-well microtiter plates and mixed with sucrose solution. The plates were closed with a stretched Parafilm. A plastic stencil with 24 holes was placed onto the plate and infested pea seedlings were placed directly on the Parafilm. The infested plate was closed with a gel blotting paper and another plastic stencil and then turned upside down. The samples were assessed for mortality 5 days after infestation.

[7] = test system: Frankliniella occidentalis; test: Activity against Frankliniella occidentalis (western flower thrips), sprayed sunflower leaf discs; details: foliar, 168 h, application rate 200 ppm, mixed ages, 7 days after infestation
Experimental: Sunflower leaf discs were placed on agar in 24-well microtiter plates and sprayed with aqueous test solutions prepared from […] stock solutions. After drying the leaf discs were infested with a Frankliniella population of mixed ages. The samples were assessed for mortality 7 days after infestation.

C[C@H](Nc1ncnc2c(Br)cc(Br)cc12)c1ncnn1-c1ncc(C#N)s1 [P14, 2-[5-[(1S)-1-[(6,8-dibromoquinazolin-4-yl)amino]ethyl]-1,2,4-triazol-1-yl]thiazole-5-carbonitrile]
≥ 80%: percent control (mortality, anti-feedant effect or growth inhibition) at 200 ppm [1] | percent effect (mortality or growth inhibition) at 200 ppm [2] | percent control (mortality, anti-feedant effect or growth inhibition) at 200 ppm [3] | mortality at 200 ppm [4] | percent effect (mortality or growth inhibition) at 200 ppm [5]

C[C@H](Nc1ncnc2c(Cl)cc(C(F)(F)F)cc12)c1ncnn1-c1ncc(C#N)s1 [P15, 2-[5-[(1S)-1-[[8-chloro-6-(trifluoromethyl)quinazolin-4-yl]amino]ethyl]-1,2,4-triazol-1-yl]thiazole-5-carbonitrile]
≥ 80%: percent control (mortality, anti-feedant effect or growth inhibition) at 200 ppm [1] | percent effect (mortality or growth inhibition) at 200 ppm [2] | percent control (mortality, anti-feedant effect or growth inhibition) at 200 ppm [3] | percent effect (mortality or growth inhibition) at 200 ppm [5] | mortality at 12 ppm [6]

C[C@H](Nc1ncnc2c(Cl)cc(I)cc12)c1ncnn1-c1ncc(C#N)s1 [P20, 2-[5-[(1S)-1-[(8-chloro-6-iodo-quinazolin-4-yl)amino]ethyl]-1,2,4-triazol-1-yl]thiazole-5-carbonitrile]
≥ 80%: percent control (mortality, anti-feedant effect or growth inhibition) at 200 ppm [1] | percent effect (mortality or growth inhibition) at 200 ppm [2] | percent control (mortality, anti-feedant effect or growth inhibition) at 200 ppm [3] | percent effect (mortality or growth inhibition) at 200 ppm [5] | mortality at 200 ppm [7]

From patent publication US20240294517A1, “2-[3-[1 [(QUINAZOLIN-4-YL)AMINO]ETHYL]PYRAZIN-2-YL]THIAZOLE-5-CARBONITRILE DERIVATIVES AND SIMILAR COMPOUNDS AS PESTICIDES” (SYNGENTA CROP PROTECTION AG, priority 2021, published 2024)
